Among the data in patent publication US12398154B2, “Azaquinazoline pan-KRas inhibitors” (Mirati Therapeutics, Inc., priority 2020, dated 2025) are IC50 values, retold here.

In assay [1] the target is KRas G12D (Homo sapiens, UniProt P01116, G12D). Description: biochemical.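 Also: TR-FRET displacement binding assay on KRas, read after a one-hour incubation at room temperature, IC50 fitted from percent-of-control values.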
Protocol: (§2) The ability of a compound to bind to KRas was measured using a TR-FRET displacement assay. […] After a 60-minute incubation at room temperature, the reaction was measured using a BMG LABTECH CLARIO star Plus via TR-FRET. […] The POC values were fit to a 4-parameter IC50 equation and the IC50 value reported.
In assay [2] the test system is pERK in H460 cells. Description: Inhibition of KRas phosphorylation of ERK (Cisbio HTRF pERK assay). As to conditions: Homo sapiens, NCI-H460, read-out: Inhibition (HTRF IC50) of KRas-mediated Phosphorylation of ERK, H460. (Time-resolved FRET reads energy transfer from a long-lived donor to a nearby acceptor.)
The test system of assay [3] is pERK in ASPC1 cells. The assay is described as above. As to conditions: Homo sapiens, ASPC1, read-out: Inhibition (HTRF IC50) of KRas-mediated Phosphorylation of ERK, AsPC-1.
Protocol: (§3) To harvest cells from flask using 0.05% Trypsin/EDTA solution. Add 10 mL of media to stop trypsinizing. Pipette the cells into a conical bottom 50 mL centrifuge tube and centrifuge 5 min×1000 rpm. • 2. Re-suspend the cell pellet in media, take a cell count, and then adjust the cell density using fresh media. • 3. Seed 6,000 cells into cell culture plate with 50 μL media. […] Incubate cell plate overnight in a 37° C., 5% CO2 incubator. • Compound titrations • 1. Use Tecan to complete the compound addition. Compounds start from 10 uM top, 3-fold dilution, and 10 doses. The final DMSO concentration is 0.8%. Dispensed 0.2 uM Trametinib as Min control. • 2. Incubate cell plate for 3 hrs in the incubator. • Detection with cisbio pERK HTRF kit • 1. […] At the end of the compound treatment, flick-off the media. • 3. Add 35 μL of lysis buffer per well using a Multidrop Combi. Then place on a plate agitator shaking at 300 rpm at 4° C. for 40 mins. • 4. Make up the HTRF antibody buffer. For each assay plate, mix 50 μL of d2-conjugate antibody with 950 μL of detection buffer. Similarly, mix 50 μL of Cryptate antibody with 950 μL of detection buffer. Then mix the two diluted antibodies together. • 5. Dispense 3.4 μL the antibody buffer to wells of an empty assay plate. Seal the plate and centrifuge plate 30 sec×1000 rpm. • 6. At the end of the 4° C. lysis, centrifuge the lysate plates 3 mins×1500 rpm. • 7. Use the Bravo to transfer 13.6 μL of lysate from cell culture plate to assay plate.
(§4) Then incubate assay plate for 2 hrs at room temperature. […] At the end of incubation, read plate on the Envision after centrifuging plate 30 sec× • 1000 rpm.
The target in assay [4] is KRas G12R (Homo sapiens, UniProt P01116, G12R). Description: biochemical.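 Also: TR-FRET displacement assay of compound binding to KRas, read after one hour at room temperature, potency from a four-parameter fit of percent-of-control values.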
Protocol: as §2
Assay [5] relates to pERK in PSN1 cells. Description: Inhibition of KRas phosphorylation of ERK (Cisbio HTRF pERK assay). As to conditions: Homo sapiens, PSN1, 3 h, read-out: Inhibition (HTRF IC50) of KRas-mediated Phosphorylation of ERK, PSN1.
Assay [6] concerns pERK in H358 cells. The description is as above. As to conditions: Homo sapiens, NCI-H358, read-out: Inhibition (HTRF IC50) of KRas-mediated Phosphorylation of ERK, H358.
Assay [7] concerns pERK in H727 cells. Described as above. As to conditions: Homo sapiens, NCI-H727, read-out: Inhibition (HTRF IC50) of KRas-mediated Phosphorylation of ERK, H727.
For assay [8], the target named is KRas G12V (Homo sapiens, UniProt P01116, G12V). Description: biochemical.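 Also: KRas binding measured by TR-FRET displacement at room temperature, IC50 fitted from percent of control values.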
Protocol: as §2
Assay [9] deals with pERK in HCT116 cells. Description: Inhibition of KRas phosphorylation of ERK (Cisbio HTRF pERK assay). As to conditions: Homo sapiens, HCT-116, read-out: Inhibition (HTRF IC50) of KRas-mediated Phosphorylation of ERK, HCT116.
Protocol: as §3, §4
Assay [10] relates to phospho-ERK in NCI-H460 (Q61H) cells. Description: Inhibition of KRas-mediated phosphorylation of ERK (in-cell western). It is filed as cell-based. The conditions noted are these: Homo sapiens, NCI-H460, 3 h, 3 hours compound, phospho-ERK normalized to GAPDH. An outline of the steps: (§1)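 Following fixation in formaldehyde and permeabilization in cold methanol, ERK phosphorylated at Thr202/Tyr204 was quantified against GAPDH.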

Assay [11] relates to phospho-ERK in AsPC-1 (G12D) cells. The assay is described as above. The format is cell-based. As to conditions: Homo sapiens, ASPC1, 3 h, 3 hours compound, phospho-ERK normalized to GAPDH. An outline of the steps: as §1
The test system of assay [12] is phospho-ERK in NCI-H727 (G12V) cells. The description is as above. It is filed as cell-based. The conditions noted are these: Homo sapiens, NCI-H727, 3 h, 3 hours compound, phospho-ERK normalized to GAPDH. An outline of the steps: as §1
In assay [13] the test system is phospho-ERK in MKN1 (WTdep) cells. The assay is described as above. It is filed as cell-based. The conditions noted are these: Homo sapiens, MKN-1, 3 hours compound, phospho-ERK normalized to GAPDH. An outline of the steps:
as §1

Assay [14] deals with pERK in MKN1 cells. Description: Inhibition of KRas phosphorylation of ERK (Cisbio HTRF pERK assay). As to conditions: Homo sapiens, MKN-1, 3 h, read-out: Inhibition (HTRF IC50) of KRas-mediated Phosphorylation of ERK, MKN1.
Assay [15] deals with pERK in A549 cells. The description is as above. As to conditions: Homo sapiens, A549, read-out: Inhibition (HTRF IC50) of KRas-mediated Phosphorylation of ERK, A549.
The target in assay [16] is KRas G12C (Homo sapiens, UniProt P01116, G12C). Description: biochemical.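 Also: binding to KRas assessed by TR-FRET displacement after one hour incubation at room temperature, potency fitted from percent-of-control values.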
Protocol: as §2
For assay [17], the system named is phospho-ERK in NCI-H358 (G12C) cells. Description: Inhibition of KRas-mediated phosphorylation of ERK (in-cell western). The format is cell-based. As to conditions: Homo sapiens, 3 hours compound, phospho-ERK normalized to GAPDH. An outline of the steps:
as §1

Assay [18] deals with phospho-ERK in HCT116 (G13D) cells. Described as above. The conditions noted are these: Homo sapiens, HCT-116, 3 hours compound, phospho-ERK normalized to GAPDH. The format is cell-based. An outline of the steps: as §1

Sequence of KRas G12R (P01116 1-169 isoform P01116-2 G12R): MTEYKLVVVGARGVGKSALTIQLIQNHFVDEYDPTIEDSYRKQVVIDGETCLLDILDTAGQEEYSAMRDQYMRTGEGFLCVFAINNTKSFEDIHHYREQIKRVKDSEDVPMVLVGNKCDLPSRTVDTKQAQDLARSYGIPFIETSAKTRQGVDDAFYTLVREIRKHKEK
Sequence of KRas G12V (P01116 1-169 isoform P01116-2 G12V): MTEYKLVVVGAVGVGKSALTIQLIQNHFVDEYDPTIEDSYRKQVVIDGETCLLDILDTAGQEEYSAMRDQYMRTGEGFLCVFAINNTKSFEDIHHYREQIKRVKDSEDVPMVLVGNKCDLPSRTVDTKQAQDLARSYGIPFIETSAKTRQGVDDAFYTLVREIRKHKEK
Sequence of KRas G12D (P01116 1-169 isoform P01116-2 G12D): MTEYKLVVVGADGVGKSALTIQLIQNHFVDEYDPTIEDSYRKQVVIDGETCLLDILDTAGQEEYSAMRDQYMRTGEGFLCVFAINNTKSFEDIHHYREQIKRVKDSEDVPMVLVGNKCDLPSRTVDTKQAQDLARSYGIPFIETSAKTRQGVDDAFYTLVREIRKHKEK
Sequence of KRas G12C (P01116 1-169 isoform P01116-2 G12C): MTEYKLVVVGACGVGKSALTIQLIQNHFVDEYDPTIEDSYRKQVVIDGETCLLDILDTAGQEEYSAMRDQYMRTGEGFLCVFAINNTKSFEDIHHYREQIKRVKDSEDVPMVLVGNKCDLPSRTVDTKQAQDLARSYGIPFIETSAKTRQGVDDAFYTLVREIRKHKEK

In general, IC50 refers to the concentration that inhibits the measured activity by half. Consider `CCc1c(F)ccc2cc(O)cc(-c3ncc4c(N5CC6C(=O)NC(=O)C6C5)nc(OC[C@@]56CCCN5C[C@H](F)C6)nc4c3F)c12` (stereo partly drawn) [Example 197], for which the IC50 in assay [1] was not above 2 nM; in [2], 183 nM; in assay [3] it was 57 nM; in [4] it was not above 2 nM; in assay [5], not below 10000 nM; in assay [6] it was 112 nM. Further, the IC50 was 348 nM in assay [7]; not above 2 nM in assay [8]; 620 nM in assay [9]; 293 nM in assay [10]; 144 nM in assay [11]; 841 nM in assay [12]. In addition, the IC50 came out at 11 nM in assay [13] and 23 nM in assay [14].
As for `CCc1c(F)ccc2cc(O)cc(-c3ncc4c(N5CCC[C@@](C)(O)C5)nc(OC[C@@]56CCCN5[C@@H](CO)CC6)nc4c3F)c12` [Example 301, (R)-1-(7-(8-ethyl-7-fluoro-3-hydroxynaphthalen-1-yl)-8-fluoro-2-(((3R,7aS)-3-(hydroxymethyl)tetrahydro-1H-pyrrolizin-7a(5H)-yl)methoxy)pyrido[4,3-d]pyrimidin-4-yl)-3-methylpiperidin-3-ol], the IC50 was not above 2 nM in assay [1]; 216 nM in assay [2]; 54 nM in assay [3]; not above 2 nM in assay [4]; 3930 nM in assay [5]; 46 nM in [6]. The IC50 was 199 nM in assay [7]; not above 2 nM in [8]; 456 nM in assay [9]; 416 nM in [10]; 216 nM in [11]; 520 nM in [12]. The IC50 is 15 nM in [13] and 14 nM in assay [14].
Take `CCc1c(F)ccc2cc(O)cc(-c3ncc4c(N5CCC[C@@](C)(O)C5)nc(OCC5(CN6CCCC6)CC5)nc4c3F)c12` [Example 202, (3R)-1-[7-(8-ethyl-7-fluoro-3-hydroxy-1-naphthyl)-8-fluoro-2-[[1-(pyrrolidin-1-ylmethyl)cyclopropyl]methoxy]pyrido[4,3-d]pyrimidin-4-yl]-3-methyl-piperidin-3-ol]: the IC50 in [1] is not above 2 nM; in [2], 28 nM; in assay [3], 7 nM; in [15] it was 9 nM; in assay [4], not above 2 nM; in assay [5], 2490 nM. Moreover, the IC50 in assay [16] was not above 2 nM; in assay [6], 4 nM; in assay [7] it was 33 nM; in [8] it was not above 2 nM; in assay [9] it was 47 nM; in [10], 74 nM. In addition, the IC50 was determined as 60 nM in assay [11], 159 nM in assay [12], 3 nM in assay [13] and 5 nM in [14].
`CCc1c(F)ccc2cc(O)cc(-c3ncc4c(N5CCC[C@@H](O)C5)nc(OC[C@@]56CCCN5C[C@H](F)C6)nc4c3F)c12` [Example 193]: the half-inhibitory concentration (IC50) stood at 42 nM in [2]; 8 nM in assay [3]; 44 nM in [15]; 3790 nM in [5]; 36 nM in [7]; 82 nM in assay [9]. The IC50 was 44 nM in [10]; 41 nM in [17]; 63 nM in assay [18]; 94 nM in assay [11]; 133 nM in [12]; 4 nM in assay [13]. In addition, the IC50 in [14] is 7 nM.
Consider `CCc1c(F)ccc2cc(O)cc(-c3ncc4c(N5CCC[C@]6(CC(=O)N6)C5)nc(OC[C@@]56CCCN5C[C@H](F)C6)nc4c3F)c12` (single isomer, unassigned) [Example 194], for which the IC50 in assay [1] is not above 2 nM; in assay [2], 55 nM; in [3], 20 nM; in assay [15], 63 nM; in assay [4], not above 2 nM; in assay [5], 1350 nM. In addition, the IC50 in assay [6] was 4 nM; in [7], 34 nM; in assay [8], not above 2 nM; in assay [9], 686 nM; in assay [10], 65 nM; in assay [11], 92 nM. The figures for the IC50 in assay [12], in assay [13] and in assay [14] were 89 nM, 7 nM and 3 nM, respectively.
In the case of `C#Cc1c(F)ccc2cc(O)cc(-c3ncc4c(N5CCOC[C@@](C)(O)C5)nc(OC[C@@]56CCCN5C[C@H](F)C6)nc4c3F)c12` [Example 201, (S)-4-(7-(8-ethynyl-7-fluoro-3-hydroxynaphthalen-1-yl)-8-fluoro-2-(((2R,7aS)-2-fluorohexahydro-1H-pyrrolizin-7a-yl)methoxy)pyrido[4,3-d]pyrimidin-4-yl)-6-methyl-1,4-oxazepan-6-ol], the IC50 in assay [1] was not above 2 nM; in assay [2] it was 118 nM; in assay [3] it was 23 nM; in assay [15], 223 nM; in [4], not above 2 nM; in [5] it was 2390 nM. Further, the IC50 in assay [6] was 12 nM; in assay [7] it was 42 nM; in assay [8], not above 2 nM; in [9] it was 187 nM; in assay [10] it was 100 nM; in [11], 91 nM. Also, the figures for the IC50 in assay [12], in [13] and in [14] were 110 nM, 2 nM and 15 nM, respectively.
For the compound `CCc1c(F)ccc2cc(O)cc(-c3ncc4c(N5CCC[C@@]6(CNC(=O)N6)C5)nc(OC[C@@]56CCCN5C[C@H](F)C6)nc4c3F)c12` [Example 300, (R)-7-(7-(8-ethyl-7-fluoro-3-hydroxynaphthalen-1-yl)-8-fluoro-2-(((2R,7aS)-2-fluorohexahydro-1H-pyrrolizin-7a-yl)methoxy)pyrido[4,3-d]pyrimidin-4-yl)-1,3,7triazaspiro[4.5]decan-2-one], the IC50 in assay [1] was not above 2 nM; in assay [3] it was 38 nM; in assay [4] it was not above 2 nM; in [5], 1380 nM; in [6] it was 14 nM; in assay [7], 89 nM. For the same compound, the IC50 in assay [8] was not above 2 nM; in assay [10] it was 71 nM; in assay [11] it was 251 nM; in assay [12], 372 nM; in assay [13] it was 37 nM; in [14], 7 nM.
Consider `CCc1c(F)ccc2cc(O)cc(-c3ncc4c(N5CCC[C@@](C)(O)C5)nc(OC[C@]56CCCN5[C@H](CO)CC6)nc4c3F)c12` [Example 302, (R)-1-(7-(8-ethyl-7-fluoro-3-hydroxynaphthalen-1-yl)-8-fluoro-2-(((3S,7aR)-3-(hydroxymethyl)tetrahydro-1H-pyrrolizin-7a(5H)-yl)methoxy)pyrido[4,3-d]pyrimidin-4-yl)-3-methylpiperidin-3-ol], for which the IC50 is not above 2 nM in [1]; 120 nM in assay [2]; 31 nM in assay [3]; 65 nM in assay [15]; not above 2 nM in [4]; 2530 nM in assay [5]. Also, the IC50 is 26 nM in assay [6]; 82 nM in assay [7]; not above 2 nM in assay [8]; 179 nM in [9]; 193 nM in assay [10]; 152 nM in [11]. Also, the IC50 was determined as 360 nM in [12], 5 nM in assay [13] and 3 nM in assay [14].
